Where two headings read alike, the source gives them in different places.
Experiments:
OCI-AML-3 cells [1] = experiment: Long term proliferation assay, Cell Titer-Glo read-out; format: cell-based; settings: for IC50: Homo sapiens; for % max: OCI-AML3
Procedure: (§1) Compounds of invention are tested in the 5 suspension lines by 14-day long-term proliferation assay.
(§2) The compound is tested in 10-pt dose titration (client will determine the starting concentration and the dilution scheme) and the final DMSO concentration is kept at 0.2%.
(§3) On Day 0, in a flat bottom 96-well plate, add 100 μL of cells per well at the densities optimized. Prepare compounds in DMSO at 500× final concentration. Dilute the compounds with DMSO at the dilution. Dilute the compounds in media at 3× final concentration. Add 50 μL of compound or DMSO at 3× final concentration to each well. Final volume in each well is 150 μL, and final concentration of DMSO is 0.2%. Also include 3 untreated control wells, by adding 50 μL of media alone. Incubate plates for 96 hours.
(§4) To do this take the total viable cell count calculated using step: • 1. Take the average of the replicates for each dose in order to be used in splitting the cells. • 2. Use a 96 well V-bottom plate to spin down the cells to remove old media and compound to split the cells. • 3. Based on the split ratio place the proper amount of media and cells into the V-bottom plate, and spin the plate at 1100 rpm for 5 minutes. • 4. Following the spin remove the media, careful not to disturb the cell pellet. Re-suspend pellet in 100 μL fresh media, and add to a new 96-well flat bottom plate. • 5. Add fresh compound, in the same manner as Step 3). • 6. Incubate plates for 72 hours. Repeat steps 5)-10) on Day 7. • 7. Incubate plates for 96 hours. Repeat Step 5)-10) on Day 11. • 8. Incubate 72 hours and repeat step 5) to take a final count. • 9. Data Analysis
(§5) To calculate growth for days 4, 7, 11, and 14: • 1. Calculate the split factor for day 4 to 7, day 7 to 11, and day 11-14. The split factor is the viable cells/mL on Day X (either 4, 7 or 11) divided by the density the cells are being split back to. • 2. For growth of cells from day 4 to 7, multiply the day 7 viable cells/mL density by the split factor from day 4. • 3. For growth of cells from day 7 to 11, multiply the day 11 viable cells/mL density by the days 4, and 7 split factors. • 4. For growth of cells from Day 11 to 14, multiply the Day 14 viable cells/mL density by the days 4, 7, and 11 split factors. • 5. Plot growth on semi-log chart (viable cells/mL on Y axis, in log, and days on X axis). • 6. The growth inhibition was calculated with the formula ((untreated cell numbers-treated cell numbers)/untreated cell)). • 7. Calculate the IC50 for each compound in each line using XLFit (Sigmoidal Dose-Response Model, y=(Bottom+((Top-Bottom)/(1+((IC50/×)^Hill))))).

KG-1 cells [2] = experiment: as above; format: cell-based; settings: for IC50: Homo sapiens
Procedure: as §1, §2, §3, §4, §5

OCI-AML-3 cells [3] = experiment: Long term proliferation assay, InCell read-out; format: cell-based; settings: for IC50: Homo sapiens
Procedure: as §1, §2, §3, §4, §5

KG-1 cells [4] = experiment: Long term proliferation assay, InCell read-out; format: cell-based; settings: for IC50: Homo sapiens
Procedure: as §1, §2, §3, §4, §5

MV4-11 cells = experiment: Long term proliferation assay, InCell read-out; format: cell-based, human; settings: for IC50: Homo sapiens
Procedure: as §1, §2, §3, §4, §5

MOLM-13 cells = experiment: Long term proliferation assay, InCell read-out; format: cell-based, human; settings: for IC50: Homo sapiens
Procedure: as §1, §2, §3, §4, §5

MIAPaCa-2/AMG510 cells = experiment: Proliferation assay, cells in adhesion; format: cell-based; settings: for IC50: Homo sapiens
SK-LU-1 cells = experiment: Proliferation assay, cells in adhesion; format: cell-based; settings: for IC50: Homo sapiens

IC50 (OCI-AML-3 cells [1]; OCI-AML-3, 96 h, OCI-AML-3, Day 4, Cell Titer-Glo, read-out: Day 4 IC50): 190 nM
IC50 (OCI-AML-3 cells [1]; OCI-AML-3, 168 h, OCI-AML-3, Day 7, Cell Titer-Glo, read-out: Day 7 IC50): 140 nM
IC50 (OCI-AML-3 cells [1]; OCI-AML-3, 264 h, OCI-AML-3, Day 11, Cell Titer-Glo, read-out: Day 11 IC50): 100 nM
IC50 (OCI-AML-3 cells [1]; OCI-AML-3, 336 h, OCI-AML-3, Day 14, Cell Titer-Glo, read-out: Day 14 IC50): 120 nM
IC50 (OCI-AML-3 cells [1]; OCI-AML-3, OCI-AML3, T4, CellTiter-Glo, read-out: IC50): 190 nM
IC50 (OCI-AML-3 cells [1]; OCI-AML-3, OCI-AML3, T4, CellTiter-Glo, read-out: pIC50 (converted)): 191 nM
IC50 (OCI-AML-3 cells [1]; OCI-AML-3, OCI-AML3, T11, CellTiter-Glo, read-out: IC50): 100 nM
IC50 (OCI-AML-3 cells [1]; OCI-AML-3, OCI-AML3, T11, CellTiter-Glo, read-out: pIC50 (converted)): 100 nM
IC50 (OCI-AML-3 cells [3]; OCI-AML-3, 96 h, OCI-AML-3, Day 4, read-out: Day 4 IC50): 110 nM
IC50 (OCI-AML-3 cells [3]; OCI-AML-3, 264 h, OCI-AML-3, Day 11, read-out: Day 11 IC50): 120 nM
IC50 (OCI-AML-3 cells [3]; OCI-AML-3, OCI-AML3, T4, read-out: IC50): 110 nM
IC50 (OCI-AML-3 cells [3]; OCI-AML-3, OCI-AML3, T4, read-out: pIC50 (converted)): 110 nM
IC50 (OCI-AML-3 cells [3]; OCI-AML-3, OCI-AML3, T11, read-out: IC50): 120 nM
IC50 (OCI-AML-3 cells [3]; OCI-AML-3, OCI-AML3, T11, read-out: pIC50 (converted)): 123 nM
IC50 (MV4-11 cells; MV4-11, 96 h, MV4-11, Day 4, read-out: Day 4 IC50): 170 nM
IC50 (MV4-11 cells; MV4-11, 264 h, MV4-11, Day 11, read-out: Day 11 IC50): 170 nM
IC50 (MV4-11 cells; MV4-11, MV4-11, T4, read-out: IC50): 170 nM
IC50 (MV4-11 cells; MV4-11, MV4-11, T4, read-out: pIC50 (converted)): 174 nM
IC50 (MV4-11 cells; MV4-11, MV4-11, T11, read-out: IC50): 170 nM
IC50 (MV4-11 cells; MV4-11, MV4-11, T11, read-out: pIC50 (converted)): 174 nM
IC50 (MOLM-13 cells; MOLM-13, 96 h, MOLM-13, Day 4, read-out: Day 4 IC50): 80 nM
IC50 (MOLM-13 cells; MOLM-13, 264 h, MOLM-13, Day 11, read-out: Day 11 IC50): 90 nM
IC50 (MOLM-13 cells; MOLM-13, MOLM-13, T4, read-out: IC50): 80 nM
IC50 (MOLM-13 cells; MOLM-13, MOLM-13, T4, read-out: pIC50 (converted)): 77.6 nM
IC50 (MOLM-13 cells; MOLM-13, MOLM-13, T11, read-out: IC50): 90 nM
IC50 (MOLM-13 cells; MOLM-13, MOLM-13, T11, read-out: pIC50 (converted)): 91.2 nM
IC50 (MIAPaCa-2/AMG510 cells; MIA PaCa-2, MIAPaCa-2/AMG510, T4, read-out: IC50): 300 nM
IC50 (MIAPaCa-2/AMG510 cells; MIA PaCa-2, MIAPaCa-2/AMG510, T4, read-out: pIC50 (converted)): 295 nM
IC50 (MIAPaCa-2/AMG510 cells; MIA PaCa-2, MIAPaCa-2/AMG510, T7, read-out: IC50): 170 nM
IC50 (MIAPaCa-2/AMG510 cells; MIA PaCa-2, MIAPaCa-2/AMG510, T7, read-out: pIC50 (converted)): 166 nM
IC50 (MIAPaCa-2/AMG510 cells; MIAPaCa-2/AMG510, T11, read-out: IC50): 150 nM
IC50 (MIAPaCa-2/AMG510 cells; MIAPaCa-2/AMG510, T11, read-out: pIC50 (converted)): 151 nM
IC50 (SK-LU-1 cells; SK-LU-1, SK-LU-1, T4, read-out: IC50): 680 nM
IC50 (SK-LU-1 cells; SK-LU-1, SK-LU-1, T7, read-out: IC50): 590 nM
IC50 (SK-LU-1 cells; SK-LU-1, SK-LU-1, T7, read-out: pIC50 (converted)): 589 nM
IC50 (SK-LU-1 cells; SK-LU-1, SK-LU-1, T11, read-out: IC50): 370 nM
IC50 (SK-LU-1 cells; SK-LU-1, SK-LU-1, T11, read-out: pIC50 (converted)): 372 nM
Structure (SMILES): C=CC(=O)NC1CCCN(Cc2ccnc(C(=O)Nc3ccc(-c4cc5c(N6CCOCC6)ncnc5[nH]4)cc3)c2)C1 (stereo not drawn) [Compound 10]
% max (OCI-AML-3 cells [1]; T4, CellTiter-Glo): 99%
% max (OCI-AML-3 cells [1]; T11, CellTiter-Glo): 99%
IC50 (KG-1 cells [2]; 96 h, Day 4, Cell Titer-Glo, read-out: Day 4 IC50): 470 nM
IC50 (KG-1 cells [2]; 168 h, Day 7, Cell Titer-Glo, read-out: Day 7 IC50): 330 nM
IC50 (KG-1 cells [2]; 264 h, Day 11, Cell Titer-Glo, read-out: Day 11 IC50): 270 nM
IC50 (KG-1 cells [2]; 336 h, Day 14, Cell Titer-Glo, read-out: Day 14 IC50): 240 nM
IC50 (KG-1 cells [2]; T4, CellTiter-Glo, read-out: IC50): 470 nM
IC50 (KG-1 cells [2]; T4, CellTiter-Glo, read-out: pIC50 (converted)): 468 nM
IC50 (KG-1 cells [2]; T11, CellTiter-Glo, read-out: IC50): 270 nM
IC50 (KG-1 cells [2]; T11, CellTiter-Glo, read-out: pIC50 (converted)): 269 nM
% max (KG-1 cells [2]; T4, CellTiter-Glo): 99%
% max (KG-1 cells [2]; T11, CellTiter-Glo): 99%
% max (OCI-AML-3 cells [3]; OCI-AML3, T4): 100%
% max (OCI-AML-3 cells [3]; OCI-AML3, T11): 100%
IC50 (KG-1 cells [4]; KG-1, 96 h, KG-1, Day 4, read-out: Day 4 IC50): 520 nM
IC50 (KG-1 cells [4]; KG-1, 264 h, KG-1, Day 11, read-out: Day 11 IC50): 300 nM
IC50 (KG-1 cells [4]; KG-1, KG-1, T4, read-out: IC50): 520 nM
IC50 (KG-1 cells [4]; KG-1, KG-1, T4, read-out: pIC50 (converted)): 525 nM
IC50 (KG-1 cells [4]; KG-1, KG-1, T11, read-out: IC50): 300 nM
IC50 (KG-1 cells [4]; KG-1, KG-1, T11, read-out: pIC50 (converted)): 302 nM
% max (KG-1 cells [4]; KG-1, T4): 100%
% max (KG-1 cells [4]; KG-1, T11): 100%
% max (MV4-11 cells; MV4-11, T4): 90%
% max (MV4-11 cells; MV4-11, T11): 90%
% max (MOLM-13 cells; MOLM-13, T4): 98%
% max (MOLM-13 cells; MOLM-13, T11): 98%
% max (MIAPaCa-2/AMG510 cells; MIAPaCa-2/AMG510, T4): 92%
% max (MIAPaCa-2/AMG510 cells; MIAPaCa-2/AMG510, T7): 98%
% max (MIAPaCa-2/AMG510 cells; MIAPaCa-2/AMG510, T11): 99%
% max (SK-LU-1 cells; SK-LU-1, T4): 82%
% max (SK-LU-1 cells; SK-LU-1, T7): 95%
% max (SK-LU-1 cells; SK-LU-1, T11): 96%
